We go through 18 compounds from patent publication US8193191B2, “Urotensin II receptor antagonists” (Janssen Pharmaceutica N.V., priority 2006, dated 2012).

Read-outs that look alike come from different tables or passages of the source. Some results are limits rather than exact numbers.

The target of experiment [1] is T1, endogenous human UII receptor (Homo sapiens, UniProt Q9UKP6).
T1 sequence (Q9UKP6 1-389): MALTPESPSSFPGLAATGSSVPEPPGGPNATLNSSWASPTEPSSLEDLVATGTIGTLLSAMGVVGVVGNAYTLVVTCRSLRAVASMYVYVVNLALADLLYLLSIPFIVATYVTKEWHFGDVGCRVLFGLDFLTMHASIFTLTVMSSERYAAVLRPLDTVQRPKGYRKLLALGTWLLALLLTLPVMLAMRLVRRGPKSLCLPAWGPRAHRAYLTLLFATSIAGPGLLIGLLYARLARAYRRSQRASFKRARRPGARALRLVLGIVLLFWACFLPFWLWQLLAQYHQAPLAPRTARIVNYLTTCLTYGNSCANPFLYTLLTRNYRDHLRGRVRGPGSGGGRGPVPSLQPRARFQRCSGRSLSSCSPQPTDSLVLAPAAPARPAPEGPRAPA
Nature of the experiment: Human Radioligand Binding Assay ((^125I)-U-II binding to human skeletal muscle myoblasts).

Experiment [2] has as its target T2, Human UII receptor, 6D9 human rhabdomyosarcoma cells (Homo sapiens, UniProt Q9UKP6).
T2 construct: 6D9: isolated by dilution subcloning of RMS13 cells, ATCC® Number: CRL-2061; host or cells: 6D9 human rhabdomyosarcoma cells (subclone of RMS13)
T2 sequence (Q9UKP6 1-389): T1 sequence (Q9UKP6 1-389)
Nature of the experiment: Human UII Calcium Mobilization Assay. It counts as cell-based. The note with it: average value, FLIPR TETRA, read-out: Human UII Ca^+ Mobilization Average IC50. The procedure, abridged: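 FLIPR calcium responses were recorded for 4 minutes after room-temperature addition of test antagonist and U-II, in dye-loaded human 6D9 cells (37° C, 45 min; HBSS/HEPES with probenecid 1.25 mM). Compounds serially diluted in HBSS/HEPES, up to 0.1% DMSO; curves gave IC50 and EC50.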
(Calcium flux is commonly read through the fluorescence of an indicator in the cells.)

Experiment [3] has as its target T3, rat GPR14 (U-II receptor) (Rattus norvegicus, UniProt P49684).
T3 construct: expressed in transfected cells
T3 sequence (P49684 1-386): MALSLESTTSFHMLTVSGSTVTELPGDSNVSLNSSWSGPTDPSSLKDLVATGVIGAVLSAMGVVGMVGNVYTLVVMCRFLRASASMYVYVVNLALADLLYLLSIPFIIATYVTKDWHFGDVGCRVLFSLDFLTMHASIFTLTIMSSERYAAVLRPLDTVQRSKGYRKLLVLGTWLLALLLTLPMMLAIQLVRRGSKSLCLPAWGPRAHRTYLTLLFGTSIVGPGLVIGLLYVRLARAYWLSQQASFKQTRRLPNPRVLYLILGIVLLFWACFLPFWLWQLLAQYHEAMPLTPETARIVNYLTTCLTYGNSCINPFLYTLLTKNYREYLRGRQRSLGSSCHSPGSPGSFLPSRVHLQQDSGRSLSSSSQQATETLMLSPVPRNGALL
In words: Rat UII Calcium Mobilization FLIPR Assay. Format: cell-based. The note with it: average value for the compound tested; read-out: Rat UII FLIPR Average IC50. The procedure, abridged:
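Fluorescent calcium signals were recorded at room temperature (23° C) by FLIPR. Stable rat U-II receptor CHO lines had been dye-loaded for 1 h at 37° C in pH 7.4 HBSS containing 20 mM HEPES, 0.1% BSA and 2.5 mM probenecid.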

Setting [4] is: read-out: Human UII Average Binding Ki, average value, (^125I)-U-II binding to human skeletal muscle myoblasts (HSMM), 25° C., 3 h.

As for `COc1ccc([C@@H](CCCNC(=O)[C@@H]2CCCN2C)N2C(=O)c3cccc(N4CCN([C@H](C)c5ccccc5)CC4)c3C2=O)cc1OC` [Cpd 191, (S)-1-methyl-pyrrolidine-2-carboxylic acid (R)-(4-(3,4-dimethoxy-phenyl)-4-{1,3-dioxo-4-[4-(1R)-(1-phenyl-ethyl)-piperazin-1-yl]-1,3-dihydro-isoindol-2-yl}-butyl)-amide], the affinity in experiment [1] corresponds to a Ki of 0.069 µM. Further, the IC50 (in general, the point on the concentration scale where inhibition reaches its midpoint) stood at 1.5 µM in experiment [2] and 0.031 µM in experiment [3].
On the same counts, the results for `COc1ccc([C@@H](CCCNS(=O)(=O)c2cccs2)N2C(=O)c3cccc(N4CCN(C5CCC5)CC4)c3C2=O)cc1OC` [Cpd 192, (R)-thiophene-2-sulfonic acid [4-[4-(4-cyclobutyl-piperazin-1-yl)-1,3-dioxo-1,3-dihydro-isoindol-2-yl]-4-(3,4-dimethoxy-phenyl)-butyl]-amide] are 0.03 µM, 0.64 µM and 0.007 µM.
The corresponding values for `COc1ccc([C@@H](CCCNS(=O)(=O)c2cccs2)N2C(=O)c3cccc(N4CCN(C5CCCC5)CC4)c3C2=O)cc1OC` [Cpd 193, (R)-thiophene-2-sulfonic acid [4-[4-(4-cyclopentyl-piperazin-1-yl)-1,3-dioxo-1,3-dihydro-isoindol-2-yl]-4-(3,4-dimethoxy-phenyl)-butyl]-amide] are 0.086 µM, 0.52 µM and 0.0079 µM.
The corresponding values for `C=CCN1CCN(c2cccc3c2C(=O)N([C@H](CCCNS(=O)(=O)c2cccs2)c2ccc(OC)c(OC)c2)C3=O)CC1` [Cpd 194, (R)-thiophene-2-sulfonic acid [4-[4-(4-allyl-piperazin-1-yl)-1,3-dioxo-1,3-dihydro-isoindol-2-yl]-4-(3,4-dimethoxy-phenyl)-butyl]-amide] are 0.17 µM, 0.99 µM and 0.01 µM.
Turning to `COc1ccc([C@@H](CCCNS(=O)(=O)c2cccs2)N2C(=O)c3cccc(N4CCN(C5CCCCC5)CC4)c3C2=O)cc1OC` [Cpd 196, (R)-thiophene-2-sulfonic acid [4-[4-(4-cyclohexyl-piperazin-1-yl)-1,3-dioxo-1,3-dihydro-isoindol-2-yl]-4-(3,4-dimethoxy-phenyl)-butyl]-amide], the affinity in experiment [1], expressed as Ki, was 0.38 µM. The IC50 in experiment [2] came out at 1.2 µM; in experiment [3] it was 0.022 µM.
On the same counts, the results for `CCN1CCN(c2cccc3c2C(=O)N([C@H](CCCNC(=O)OC(C)(C)C)c2ccc(OC)c(OC)c2)C3=O)CC1` [Cpd 197, (R)-{4-(3,4-dimethoxy-phenyl)-4-[4-(4-ethyl-piperazin-1-yl)-1,3-dioxo-1,3-dihydro-isoindol-2-yl]-butyl}-carbamic acid tert-butyl ester] are 0.22 µM, 0.54 µM and 0.082 µM.
For the compound `COc1ccc([C@@H](CCCNS(=O)(=O)c2cccs2)N2C(=O)c3cccc(N4CCN(C(C)C)CC4)c3C2=O)cc1OC` [Cpd 198, (R)-thiophene-2-sulfonic acid {4-(3,4-dimethoxy-phenyl)-4-[4-(4-isopropyl-piperazin-1-yl)-1,3-dioxo-1,3-dihydro-isoindol-2-yl]-butyl}-amide], the Ki – broadly, a measure of affinity in units of concentration, obtained from inhibition or displacement – in experiment [1] (setting [4]) came to 0.045 µM. Moreover, the IC50 in experiment [2] was determined as 0.15 µM; in experiment [3], 0.0035 µM.
For `COc1ccc([C@@H](CCCNC(=O)C(C#N)C(C)=O)N2C(=O)c3cccc(N4CCN([C@H](C)c5ccccc5)CC4)c3C2=O)cc1OC` (stereo partly drawn) [Cpd 199, (R)-2-cyano-N-(4-(3,4-dimethoxy-phenyl)-4-{1,3-dioxo-4-[4-(1R)-(1-phenyl-ethyl)-piperazin-1-yl]-1,3-dihydro-isoindol-2-yl}-butyl)-3-oxo-butyramide], the Ki in experiment [1] stood at 0.027 µM. For the same compound, the IC50 in experiment [2] is 0.16 µM; in experiment [3] it was 0.0093 µM.
The corresponding values for `CCN1CCN(c2cccc3c2C(=O)N([C@H](CCCOCc2ccccc2)c2ccc(OC)c(OC)c2)C3=O)CC1` [Cpd 201, (R)-2-[4-benzyloxy-1-(3,4-dimethoxy-phenyl)-butyl]-4-(4-ethyl-piperazin-1-yl)-isoindole-1,3-dione] are 0.21 µM, more than 3 µM and 0.049 µM.
In turn, `CCN1CCN(c2cccc3c2C(=O)N([C@H](CCCNC(=O)C2CCC2)c2ccc(OC)c(OC)c2)C3=O)CC1` [Cpd 202, (R)-cyclobutanecarboxylic acid {4-(3,4-dimethoxy-phenyl)-4-[4-(4-ethyl-piperazin-1-yl)-1,3-dioxo-1,3-dihydro-isoindol-2-yl]-butyl}-amide] registered a Ki in experiment [1] of 0.15 µM. Besides, the IC50 in experiment [2] stood at 0.96 µM; in experiment [3], 0.12 µM.
As for `CCN1CCN(c2cccc3c2C(=O)N([C@H](CCCNS(=O)(=O)c2cn(C)c(C)n2)c2ccc(OC)c(OC)c2)C3=O)CC1` [Cpd 203, (R)-1,2-dimethyl-1H-imidazole-4-sulfonic acid {4-(3,4-dimethoxy-phenyl)-4-[4-(4-ethyl-piperazin-1-yl)-1,3-dioxo-1,3-dihydro-isoindol-2-yl]-butyl}-amide], the Ki in experiment [1] (setting [4]) turned out to be 0.097 µM. Moreover, the IC50 in experiment [2] stood at 0.81 µM; in experiment [3], 0.14 µM.
`CCN1CCN(c2cccc3c2C(=O)N([C@H](CCCO)c2ccc(OC)c(OC)c2)C3=O)CC1` [Cpd 206, (R)-2-[1-(3,4-dimethoxy-phenyl)-4-hydroxy-butyl]-4-(4-ethyl-piperazin-1-yl)-isoindole-1,3-dione] yielded a Ki in experiment [1] of 0.066 µM. Moreover, the IC50 in experiment [2] is 0.68 µM; in experiment [3], 0.69 µM.
On the same counts, the results for `CCOCCC[C@H](c1ccc(OC)c(OC)c1)N1C(=O)c2cccc(N3CCN(CC)CC3)c2C1=O` [Cpd 207, (R)-2-[1-(3,4-dimethoxy-phenyl)-4-ethoxy-butyl]-4-(4-ethyl-piperazin-1-yl)-isoindole-1,3-dione] are more than 0.3 µM, 1.4 µM and 0.2 µM.
The corresponding values for `CCN1CCN(c2cccc3c2C(=O)N([C@H](CCCOCC(C)C)c2ccc(OC)c(OC)c2)C3=O)CC1` [Cpd 210, (R)-2-[1-(3,4-dimethoxy-phenyl)-4-isobutoxy-butyl]-4-(4-ethyl-piperazin-1-yl)-isoindole-1,3-dione] are more than 0.3 µM, more than 10 µM and 6.2 µM.
For `COc1ccc([C@@H](CCNC(=O)c2csc(C)n2)N2C(=O)c3cccc(N4CCN([C@H](C)c5ccccc5)CC4)c3C2=O)cc1OC` [Cpd 211, (R)-2-methyl-thiazole-4-carboxylic acid (3-(3,4-dimethoxy-phenyl)-3-{1,3-dioxo-4-[4-(1R)-(1-phenyl-ethyl)-piperazin-1-yl]-1,3-dihydro-isoindol-2-yl}-propyl)-amide], in experiment [1], the Ki stood at 0.089 µM. Also, the IC50 was determined as 1.2 µM in experiment [2] and 0.019 µM in experiment [3].
`COc1ccc([C@@H](CCCNC(=O)C(F)(F)F)N2C(=O)c3cccc(N4CCN([C@H](C)c5ccccc5)CC4)c3C2=O)cc1OC` [Cpd 212, (R)-N-(4-(3,4-dimethoxy-phenyl)-4-{1,3-dioxo-4-[4-(1R)-(1-phenyl-ethyl)-piperazin-1-yl]-1,3-dihydro-isoindol-2-yl}-butyl)-2,2,2-trifluoro-acetamide]: in experiment [1], the affinity corresponds to a Ki of 0.026 µM. Also, the IC50 worked out at 0.79 µM in experiment [2] and 0.019 µM in experiment [3].
The corresponding values for `COc1ccc([C@@H](CCCNC(=O)COC(C)(C)C)N2C(=O)c3cccc(N4CCN([C@H](C)c5ccccc5)CC4)c3C2=O)cc1OC` [Cpd 213, (R)-2-tert-butoxy-N-(4-(3,4-dimethoxy-phenyl)-4-{1,3-dioxo-4-[4-(1R)-(1-phenyl-ethyl)-piperazin-1-yl]-1,3-dihydro-isoindol-2-yl}-butyl)-acetamide] are 0.054 µM, 0.73 µM and 0.017 µM.
The corresponding values for `CCN1CCN(c2cccc3c2C(=O)N([C@H](CCCOCc2cccs2)c2ccc(OC)c(OC)c2)C3=O)CC1` [Cpd 214, (R)-2-[1-(3,4-dimethoxy-phenyl)-4-(thiophen-2-ylmethoxy)-butyl]-4-(4-ethyl-piperazin-1-yl)-isoindole-1,3-dione] are more than 0.3 µM, more than 10 µM and 9.5 µM.
